# Values of other authors as cited in paper PMC8066102, “Metabolic Profiles of New Unsymmetrical Bisacridine Antitumor Agents in Electrochemical and Enzymatic Noncellular Systems and in Tumor Cells” (Pharmaceuticals, 2021).
# Set-up: method as in PMID 2810109, PMID 12920162
# Details: after UGT2B7 glucuronidation; cited from earlier work
smiles,measurement,value
CN1CC[C@]23c4c5ccc(O)c4O[C@H]2[C@@H](O[C@@H]2O[C@H](C(=O)O)[C@@H](O)[C@H](O)[C@H]2O)C=C[C@H]3[C@H]1C5 [morphine-6-glucuronide],analgesic activity relative to morphine,650 fold
